ChEMBL document CHEMBL1201862, “PubChem BioAssay data set” (2004)
Where a name gives a salt, the structure may show the parent alone.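 The compound was tested at five concentrations on cells cultured in 96-well plates, with a 48-hour exposure period. Abbreviation: GI50, concentration required for 50% inhibition of growth.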 Calls of active or inactive are those of the source. No stated cut-off is given here; in the data, active = GI50 up to about 1.1 µM and inactive = higher.

Columns and labels:
Test in all cases: DTP human tumour cell line panel, 48 h
NCI-H23 = test system: NCI-H23
SNB-19 = test system: SNB-19
A498 = test system: A498
OVCAR-5 = test system: OVCAR-5
CCRF-CEM = test system: CCRF-CEM
T47D = test system: T47D
SK-OV-3 = test system: SK-OV-3
SNB-75 = test system: SNB-75
DLD-1 = test system: DLD-1
UO-31 = test system: UO-31
RXF 393 = test system: RXF 393
OVCAR-3 = test system: OVCAR-3
HOP-62 = test system: HOP-62
EKVX = test system: EKVX
SK-MEL-2 = test system: SK-MEL-2
CAKI-1 = test system: CAKI-1
HCT-15 = test system: HCT-15
SK-MEL-28 = test system: SK-MEL-28
HOP-18 = test system: HOP-18
SNB-78 = test system: SNB-78
NCI-H460 = test system: NCI-H460
SR = test system: SR
HOP-92 = test system: HOP-92
U-251 = test system: U-251
COLO 205 = test system: COLO 205
M19-MEL = test system: M19-MEL
LXFL 529 = test system: LXFL 529
DMS-114 = test system: DMS-114
DMS-273 = test system: DMS-273
KM-20L2 = test system: KM-20L2
HCT-116 = test system: HCT-116
XF498 = test system: XF498
SF-268 = test system: SF-268
ACHN = test system: ACHN
Malme-3M = test system: Malme-3M
NCI-H522 = test system: NCI-H522
NCI-H226 = test system: NCI-H226
IGROV-1 = test system: IGROV-1
TK-10 = test system: TK-10
RXF 631 = test system: RXF 631
UACC-257 = test system: UACC-257
MOLT-4 = test system: MOLT-4
KM12 = test system: KM12
HL-60 = test system: HL-60
A549 = test system: A549
SF-295 = test system: SF-295
HT-29 = test system: HT-29
UACC-62 = test system: UACC-62
M14 = test system: M14
OVCAR-8 = test system: OVCAR-8
SK-MEL-5 = test system: SK-MEL-5
786-0 = test system: 786-0
RPMI-8226 = test system: RPMI-8226
SF-539 = test system: SF-539
SW-620 = test system: SW-620
SN12C = test system: SN12C
HCC 2998 = test system: HCC 2998
K562 = test system: K562
OVCAR-4 = test system: OVCAR-4
LOX IMVI = test system: LOX IMVI

Measured: GI50

CC[C@]1(O)C[C@H]2CN(CCc3c([nH]c4ccccc34)[C@@](C(=O)OC)(c3cc4c(cc3OC)N(C=O)[C@H]3[C@@](O)(C(=O)OC)[C@H](OC(C)=O)[C@]5(CC)C=CCN6CC[C@]43[C@@H]65)C2)C1 [VINCRISTINE SULFATE]
inactive: OVCAR-5 22.2 µM | T47D 175 µM | UO-31 2.1 µM | EKVX 2.36 µM | SK-MEL-28 1.31 µM | HOP-18 20.8 µM
active: NCI-H23 0.112 µM | SNB-19 0.131 µM | A498 0.126 µM | CCRF-CEM 0.131 µM | SK-OV-3 0.288 µM | SNB-75 0.43 µM | DLD-1 0.106 µM | RXF 393 0.161 µM | OVCAR-3 0.125 µM | HOP-62 0.225 µM | SK-MEL-2 0.132 µM | CAKI-1 0.14 µM | SNB-78 0.163 µM | NCI-H460 0.105 µM | SR 0.1 µM | HOP-92 0.137 µM | U-251 0.132 µM | COLO 205 0.133 µM | M19-MEL 0.142 µM | LXFL 529 0.1 µM | DMS-114 0.121 µM | DMS-273 0.1 µM | KM-20L2 0.106 µM | HCT-116 0.132 µM | XF498 0.135 µM | SF-268 0.172 µM | ACHN 0.176 µM | Malme-3M 0.333 µM | NCI-H522 0.119 µM
0.137 µM: HCT-15

CCNC(CCCC(NCC)P(=O)(O)O)P(=O)(O)O (centres undefined)
inactive: NCI-H23 > 100 µM | SNB-19 > 100 µM | A498 > 100 µM | NCI-H226 > 100 µM | IGROV-1 > 100 µM | OVCAR-5 > 100 µM | CCRF-CEM > 100 µM | SK-OV-3 > 100 µM | UO-31 > 100 µM | TK-10 > 100 µM | RXF 393 > 100 µM | RXF 631 > 100 µM | HOP-62 > 100 µM | UACC-257 > 100 µM | MOLT-4 > 100 µM | KM12 > 100 µM | HL-60 > 100 µM | SK-MEL-28 > 100 µM | SNB-78 > 100 µM | NCI-H460 > 100 µM | A549 > 100 µM | SR > 100 µM | SF-295 > 100 µM | HOP-92 > 100 µM | HT-29 > 100 µM | UACC-62 > 100 µM | U-251 > 100 µM | M19-MEL > 100 µM | KM-20L2 > 100 µM | HCT-116 > 100 µM | M14 > 100 µM | OVCAR-8 > 100 µM | NCI-H522 > 100 µM

O=C(O)COc1ccc(C(=O)/C(SS/C(C(=O)c2ccc(OCC(=O)O)c(Cl)c2Cl)=C2\C=C(c3ccc(Cl)cc3)SS2)=C2/C=C(c3ccc(Cl)cc3)SS2)c(Cl)c1Cl
inactive: NCI-H23 9.23 µM | SNB-19 8.99 µM | A498 31.1 µM | NCI-H226 5.66 µM | IGROV-1 13.3 µM | OVCAR-5 30.1 µM | CCRF-CEM 2.29 µM | SK-OV-3 56.1 µM | SNB-75 11.1 µM | DLD-1 11.6 µM | UO-31 4.89 µM | TK-10 24.7 µM | OVCAR-3 5.37 µM | SK-MEL-5 16.7 µM | RXF 631 12.1 µM | 786-0 13.5 µM | HOP-62 39.8 µM | RPMI-8226 22.3 µM | UACC-257 78.2 µM | EKVX 57.1 µM | SK-MEL-2 14.1 µM | MOLT-4 3.58 µM | CAKI-1 28.1 µM | KM12 16 µM | SF-539 5.9 µM | SK-MEL-28 25.2 µM | HOP-18 7.73 µM | SNB-78 6.7 µM | NCI-H460 19.1 µM | A549 21.4 µM | SF-295 18.2 µM | HOP-92 4.22 µM | HT-29 34.5 µM | UACC-62 9.51 µM | U-251 4.2 µM | M19-MEL 7.74 µM | HCC 2998 12.4 µM | K562 2.43 µM | LXFL 529 4.61 µM | DMS-273 18.1 µM | KM-20L2 25.1 µM | HCT-116 9.08 µM | M14 13.5 µM | SF-268 11.2 µM | OVCAR-4 5.27 µM | ACHN 8.39 µM | OVCAR-8 5.85 µM | Malme-3M 33.7 µM | LOX IMVI 3.93 µM | NCI-H522 2.18 µM
active: HL-60 0.252 µM | SW-620 0.435 µM | SN12C 0.319 µM | COLO 205 0.339 µM
5.78 µM: HCT-15
